Here are results for twelve compounds from ChEMBL document CHEMBL1201862, “PubChem BioAssay data set” (2004).

The source made the active and inactive calls.

Experiment [1] concerns the target Kallikrein-7 (Homo sapiens, UniProt P49862). Briefly: Fluorescence Intensity-based biochemical primary high throughput dose response assay to identify activators of kallikrein-7 (K7) zymogen.
For experiment [2], the target named is Induced myeloid leukemia cell differentiation protein Mcl-1 (Homo sapiens, UniProt Q07820). It is filed as functional.
Experiment [3] can be described thus: miR-122 activators in hepatoma reporter cells, dose response, cell-based, Huh7 psiCHECK-miR122, Renilla luciferase, cherry-picked (AID 651956).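 Note: huh7 hepatoma cells stably carrying a psiCHECK-2 miR-122 sensor plasmid; renilla luciferase signal reporting endogenous miR-122 activity after 48 h compound exposure.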 Type of experiment: functional.
In experiment [4] the target is T1, 1-phosphatidylinositol 4,5-bisphosphate phosphodiesterase beta-3 (Homo sapiens, UniProt Q01970).
T1 sequence (Q01970 whole entry): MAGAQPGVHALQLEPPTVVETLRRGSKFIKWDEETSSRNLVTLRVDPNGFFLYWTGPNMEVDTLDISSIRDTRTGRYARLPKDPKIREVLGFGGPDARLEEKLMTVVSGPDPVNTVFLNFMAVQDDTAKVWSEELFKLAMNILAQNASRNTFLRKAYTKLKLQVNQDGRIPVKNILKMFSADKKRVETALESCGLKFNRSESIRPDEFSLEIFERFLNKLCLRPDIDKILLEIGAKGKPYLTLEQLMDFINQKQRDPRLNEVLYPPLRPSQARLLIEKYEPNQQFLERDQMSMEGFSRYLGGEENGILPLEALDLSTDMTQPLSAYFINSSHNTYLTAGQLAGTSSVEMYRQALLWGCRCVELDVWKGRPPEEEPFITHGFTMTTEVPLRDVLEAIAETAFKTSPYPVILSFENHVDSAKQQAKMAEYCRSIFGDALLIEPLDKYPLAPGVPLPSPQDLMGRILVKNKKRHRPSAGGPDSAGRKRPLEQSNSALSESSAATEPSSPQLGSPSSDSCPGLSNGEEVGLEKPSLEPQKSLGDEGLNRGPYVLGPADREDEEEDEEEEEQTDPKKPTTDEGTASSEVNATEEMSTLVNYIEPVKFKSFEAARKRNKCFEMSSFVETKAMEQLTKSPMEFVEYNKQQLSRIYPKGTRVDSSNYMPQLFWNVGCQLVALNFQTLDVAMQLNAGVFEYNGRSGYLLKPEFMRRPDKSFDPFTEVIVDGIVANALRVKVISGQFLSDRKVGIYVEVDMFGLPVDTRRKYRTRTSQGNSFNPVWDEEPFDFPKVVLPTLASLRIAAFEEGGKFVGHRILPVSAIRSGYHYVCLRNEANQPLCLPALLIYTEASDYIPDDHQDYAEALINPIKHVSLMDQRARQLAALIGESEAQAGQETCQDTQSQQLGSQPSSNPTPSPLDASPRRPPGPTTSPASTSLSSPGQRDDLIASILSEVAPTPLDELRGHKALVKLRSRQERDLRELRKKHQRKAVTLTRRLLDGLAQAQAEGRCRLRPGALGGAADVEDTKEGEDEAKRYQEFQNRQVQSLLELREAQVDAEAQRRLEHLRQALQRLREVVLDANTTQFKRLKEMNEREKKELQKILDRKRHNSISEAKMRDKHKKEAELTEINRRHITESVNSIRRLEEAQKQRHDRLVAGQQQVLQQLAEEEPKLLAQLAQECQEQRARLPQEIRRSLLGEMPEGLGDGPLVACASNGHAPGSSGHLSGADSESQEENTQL
Briefly: Fluorescence-based biochemical high throughput dose response assay to identify inhibitors of phospholipase C isozymes (PLC-B3).

For experiment [5], the target named is T2, 1-phosphatidylinositol 4,5-bisphosphate phosphodiesterase gamma-1 (Homo sapiens, UniProt P19174).
T2 sequence (P19174 whole entry): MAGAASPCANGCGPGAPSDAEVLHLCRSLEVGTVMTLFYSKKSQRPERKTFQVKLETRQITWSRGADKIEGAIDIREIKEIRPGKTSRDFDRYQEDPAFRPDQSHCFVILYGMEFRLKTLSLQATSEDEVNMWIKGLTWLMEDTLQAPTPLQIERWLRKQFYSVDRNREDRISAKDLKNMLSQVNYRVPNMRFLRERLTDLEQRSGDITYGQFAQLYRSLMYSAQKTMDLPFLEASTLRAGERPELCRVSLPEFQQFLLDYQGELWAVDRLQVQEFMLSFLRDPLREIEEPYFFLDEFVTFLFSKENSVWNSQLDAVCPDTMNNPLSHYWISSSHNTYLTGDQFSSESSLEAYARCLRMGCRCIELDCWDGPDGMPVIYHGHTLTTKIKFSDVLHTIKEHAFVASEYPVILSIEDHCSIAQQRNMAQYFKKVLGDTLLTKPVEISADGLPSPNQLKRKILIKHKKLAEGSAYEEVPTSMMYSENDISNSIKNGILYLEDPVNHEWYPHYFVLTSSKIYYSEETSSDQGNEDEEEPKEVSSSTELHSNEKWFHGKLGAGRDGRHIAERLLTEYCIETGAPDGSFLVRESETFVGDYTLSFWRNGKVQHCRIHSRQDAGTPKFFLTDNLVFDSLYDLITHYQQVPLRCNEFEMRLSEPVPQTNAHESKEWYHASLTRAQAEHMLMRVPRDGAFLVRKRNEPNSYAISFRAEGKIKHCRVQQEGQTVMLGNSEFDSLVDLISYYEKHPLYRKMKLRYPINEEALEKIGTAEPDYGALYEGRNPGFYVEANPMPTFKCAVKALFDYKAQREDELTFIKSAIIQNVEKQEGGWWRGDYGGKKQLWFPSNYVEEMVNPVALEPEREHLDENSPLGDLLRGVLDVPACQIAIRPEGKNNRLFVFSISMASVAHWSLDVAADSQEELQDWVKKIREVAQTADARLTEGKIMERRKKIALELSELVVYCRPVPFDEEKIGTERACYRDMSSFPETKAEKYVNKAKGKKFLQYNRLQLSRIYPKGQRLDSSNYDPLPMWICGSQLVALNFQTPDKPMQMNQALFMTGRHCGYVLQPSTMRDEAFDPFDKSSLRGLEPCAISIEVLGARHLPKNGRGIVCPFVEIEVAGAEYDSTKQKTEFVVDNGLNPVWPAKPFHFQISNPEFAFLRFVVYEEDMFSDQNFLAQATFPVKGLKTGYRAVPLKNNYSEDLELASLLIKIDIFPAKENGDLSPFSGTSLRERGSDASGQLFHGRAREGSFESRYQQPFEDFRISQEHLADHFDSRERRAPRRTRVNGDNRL
Briefly: Counterscreen for inhibitors of phospholipase C isozymes (PLC-B3): Fluorescence-based biochemical high throughput dose response assay to identify inhibitors of phospholipase C isozymes (PLC-gamma1).

Experiment [6] is described as follows: HEK293T cytotoxicity, dose response, cytotoxicity control for miR-122 modulator project, cell-based, inhibitor set, cherry-pick, set 2 (AID 720697). It is filed as functional.
Experiment [7] concerns the target T3, DNA repair and recombination protein RAD54-like (Homo sapiens, UniProt Q92698).
T3 sequence (Q92698 whole entry): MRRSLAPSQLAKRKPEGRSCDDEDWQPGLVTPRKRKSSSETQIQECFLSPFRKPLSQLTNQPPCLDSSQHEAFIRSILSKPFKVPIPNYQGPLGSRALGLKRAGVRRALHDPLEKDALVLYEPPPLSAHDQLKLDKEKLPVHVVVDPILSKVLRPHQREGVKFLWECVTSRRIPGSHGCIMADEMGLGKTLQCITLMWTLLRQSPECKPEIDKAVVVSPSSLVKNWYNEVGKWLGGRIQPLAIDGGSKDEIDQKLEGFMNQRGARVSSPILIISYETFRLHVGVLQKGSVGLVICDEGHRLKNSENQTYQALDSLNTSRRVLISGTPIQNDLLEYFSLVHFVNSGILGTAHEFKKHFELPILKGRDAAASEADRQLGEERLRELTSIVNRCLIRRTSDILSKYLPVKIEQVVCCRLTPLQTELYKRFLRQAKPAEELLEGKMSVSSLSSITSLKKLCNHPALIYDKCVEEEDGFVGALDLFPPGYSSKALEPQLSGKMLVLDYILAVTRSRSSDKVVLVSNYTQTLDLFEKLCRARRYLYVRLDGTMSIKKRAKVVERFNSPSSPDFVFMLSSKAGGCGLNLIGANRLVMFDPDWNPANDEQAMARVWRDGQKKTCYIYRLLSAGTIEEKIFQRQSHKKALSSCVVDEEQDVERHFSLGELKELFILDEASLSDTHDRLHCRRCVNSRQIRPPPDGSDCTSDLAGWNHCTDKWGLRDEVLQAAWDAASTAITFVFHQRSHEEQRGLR
Briefly: inhibitors of human RAD54 branch migration, confirmation, biochemical, fluorescence, cherry-picked samples, dose series (AID 651657). Type of experiment: functional.

Experiment [8] is described as follows: HeLa cell cytotoxicity, dose response, cytotoxicity control for MgcRacGAP inhibitor project (AID 624300). Type of experiment: functional.
The target in experiment [9] is T4, Caspase-6 (Homo sapiens, UniProt P55212).
T4 sequence (P55212 whole entry): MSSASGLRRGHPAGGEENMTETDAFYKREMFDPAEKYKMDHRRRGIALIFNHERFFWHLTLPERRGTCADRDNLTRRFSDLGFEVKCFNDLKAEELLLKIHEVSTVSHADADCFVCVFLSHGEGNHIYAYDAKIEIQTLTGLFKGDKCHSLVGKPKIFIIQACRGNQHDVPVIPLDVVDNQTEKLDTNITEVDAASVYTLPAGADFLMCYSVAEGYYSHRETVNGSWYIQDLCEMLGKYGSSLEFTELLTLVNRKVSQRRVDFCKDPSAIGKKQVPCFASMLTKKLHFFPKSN
Briefly: human caspase-6 inhibitors, dose response, biochemical, VEID-R110 fluorescence, cherry-pick (AID 720632).

The nature of experiment [10]: Counterscreen for inhibitors of Trypanosoma brucei methionyl tRNA synthetase (MetRS): Luminescence-based cell-based high throughput dose response assay to identify compounds that are cytotoxic to Jurkat human T lymphocyte cells. It is filed as functional.
The target in experiment [11] is T5, Corticotropin-releasing factor receptor 2/Corticotropin-releasing factor-binding protein (Homo sapiens, UniProt P24387+Q13324).
T5 sequence (Q13324 whole entry): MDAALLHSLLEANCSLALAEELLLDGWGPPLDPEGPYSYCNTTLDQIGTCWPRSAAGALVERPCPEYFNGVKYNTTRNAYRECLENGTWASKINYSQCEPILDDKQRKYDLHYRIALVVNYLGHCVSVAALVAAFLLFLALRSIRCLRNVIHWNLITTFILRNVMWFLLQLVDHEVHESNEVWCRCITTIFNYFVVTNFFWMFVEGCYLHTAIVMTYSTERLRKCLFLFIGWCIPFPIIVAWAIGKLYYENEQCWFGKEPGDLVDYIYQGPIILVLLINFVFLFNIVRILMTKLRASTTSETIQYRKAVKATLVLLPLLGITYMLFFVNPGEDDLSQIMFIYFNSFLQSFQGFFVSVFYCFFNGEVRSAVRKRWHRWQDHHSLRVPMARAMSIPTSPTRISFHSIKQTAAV
T5 sequence (P24387 whole entry): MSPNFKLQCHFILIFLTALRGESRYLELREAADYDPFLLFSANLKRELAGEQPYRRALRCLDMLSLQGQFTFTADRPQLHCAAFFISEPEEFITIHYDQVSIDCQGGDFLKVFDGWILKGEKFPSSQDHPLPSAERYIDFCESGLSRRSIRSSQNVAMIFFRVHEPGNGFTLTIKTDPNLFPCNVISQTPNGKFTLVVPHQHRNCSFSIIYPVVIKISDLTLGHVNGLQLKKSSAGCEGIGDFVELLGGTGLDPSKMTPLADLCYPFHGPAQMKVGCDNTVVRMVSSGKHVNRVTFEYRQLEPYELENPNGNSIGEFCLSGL
Briefly: Dose Response confirmation of uHTS hits for small molecule antagonists of the CRF-binding protein and CRF-R2 receptor complex. It is filed as functional. To be noted: read-out: IC50_Mean.

The target in experiment [12] is T5, Corticotropin-releasing factor receptor 2/Corticotropin-releasing factor-binding protein. Briefly: activators of CRF receptor 2 with binding protein – uHTS hits, confirmation (AID 602473). To be noted: read-out: EC50_Mean. It is filed as functional.
Experiment [13] has as its target Voltage-dependent T-type calcium channel subunit alpha-1H (Homo sapiens, UniProt O95180). It is filed as functional.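 Note: channel activity triggered by adding a high calcium stimulation buffer.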

Kallikrein-7, sequence (P49862 whole entry): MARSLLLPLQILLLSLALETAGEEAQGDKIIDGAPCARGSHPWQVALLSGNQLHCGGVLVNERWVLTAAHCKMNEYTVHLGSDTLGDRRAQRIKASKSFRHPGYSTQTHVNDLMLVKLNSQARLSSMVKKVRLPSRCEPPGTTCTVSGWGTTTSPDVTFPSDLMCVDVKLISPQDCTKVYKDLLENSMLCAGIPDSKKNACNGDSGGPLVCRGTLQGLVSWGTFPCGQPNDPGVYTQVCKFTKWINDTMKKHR
Voltage-dependent T-type calcium channel subunit alpha-1H, sequence (O95180 whole entry): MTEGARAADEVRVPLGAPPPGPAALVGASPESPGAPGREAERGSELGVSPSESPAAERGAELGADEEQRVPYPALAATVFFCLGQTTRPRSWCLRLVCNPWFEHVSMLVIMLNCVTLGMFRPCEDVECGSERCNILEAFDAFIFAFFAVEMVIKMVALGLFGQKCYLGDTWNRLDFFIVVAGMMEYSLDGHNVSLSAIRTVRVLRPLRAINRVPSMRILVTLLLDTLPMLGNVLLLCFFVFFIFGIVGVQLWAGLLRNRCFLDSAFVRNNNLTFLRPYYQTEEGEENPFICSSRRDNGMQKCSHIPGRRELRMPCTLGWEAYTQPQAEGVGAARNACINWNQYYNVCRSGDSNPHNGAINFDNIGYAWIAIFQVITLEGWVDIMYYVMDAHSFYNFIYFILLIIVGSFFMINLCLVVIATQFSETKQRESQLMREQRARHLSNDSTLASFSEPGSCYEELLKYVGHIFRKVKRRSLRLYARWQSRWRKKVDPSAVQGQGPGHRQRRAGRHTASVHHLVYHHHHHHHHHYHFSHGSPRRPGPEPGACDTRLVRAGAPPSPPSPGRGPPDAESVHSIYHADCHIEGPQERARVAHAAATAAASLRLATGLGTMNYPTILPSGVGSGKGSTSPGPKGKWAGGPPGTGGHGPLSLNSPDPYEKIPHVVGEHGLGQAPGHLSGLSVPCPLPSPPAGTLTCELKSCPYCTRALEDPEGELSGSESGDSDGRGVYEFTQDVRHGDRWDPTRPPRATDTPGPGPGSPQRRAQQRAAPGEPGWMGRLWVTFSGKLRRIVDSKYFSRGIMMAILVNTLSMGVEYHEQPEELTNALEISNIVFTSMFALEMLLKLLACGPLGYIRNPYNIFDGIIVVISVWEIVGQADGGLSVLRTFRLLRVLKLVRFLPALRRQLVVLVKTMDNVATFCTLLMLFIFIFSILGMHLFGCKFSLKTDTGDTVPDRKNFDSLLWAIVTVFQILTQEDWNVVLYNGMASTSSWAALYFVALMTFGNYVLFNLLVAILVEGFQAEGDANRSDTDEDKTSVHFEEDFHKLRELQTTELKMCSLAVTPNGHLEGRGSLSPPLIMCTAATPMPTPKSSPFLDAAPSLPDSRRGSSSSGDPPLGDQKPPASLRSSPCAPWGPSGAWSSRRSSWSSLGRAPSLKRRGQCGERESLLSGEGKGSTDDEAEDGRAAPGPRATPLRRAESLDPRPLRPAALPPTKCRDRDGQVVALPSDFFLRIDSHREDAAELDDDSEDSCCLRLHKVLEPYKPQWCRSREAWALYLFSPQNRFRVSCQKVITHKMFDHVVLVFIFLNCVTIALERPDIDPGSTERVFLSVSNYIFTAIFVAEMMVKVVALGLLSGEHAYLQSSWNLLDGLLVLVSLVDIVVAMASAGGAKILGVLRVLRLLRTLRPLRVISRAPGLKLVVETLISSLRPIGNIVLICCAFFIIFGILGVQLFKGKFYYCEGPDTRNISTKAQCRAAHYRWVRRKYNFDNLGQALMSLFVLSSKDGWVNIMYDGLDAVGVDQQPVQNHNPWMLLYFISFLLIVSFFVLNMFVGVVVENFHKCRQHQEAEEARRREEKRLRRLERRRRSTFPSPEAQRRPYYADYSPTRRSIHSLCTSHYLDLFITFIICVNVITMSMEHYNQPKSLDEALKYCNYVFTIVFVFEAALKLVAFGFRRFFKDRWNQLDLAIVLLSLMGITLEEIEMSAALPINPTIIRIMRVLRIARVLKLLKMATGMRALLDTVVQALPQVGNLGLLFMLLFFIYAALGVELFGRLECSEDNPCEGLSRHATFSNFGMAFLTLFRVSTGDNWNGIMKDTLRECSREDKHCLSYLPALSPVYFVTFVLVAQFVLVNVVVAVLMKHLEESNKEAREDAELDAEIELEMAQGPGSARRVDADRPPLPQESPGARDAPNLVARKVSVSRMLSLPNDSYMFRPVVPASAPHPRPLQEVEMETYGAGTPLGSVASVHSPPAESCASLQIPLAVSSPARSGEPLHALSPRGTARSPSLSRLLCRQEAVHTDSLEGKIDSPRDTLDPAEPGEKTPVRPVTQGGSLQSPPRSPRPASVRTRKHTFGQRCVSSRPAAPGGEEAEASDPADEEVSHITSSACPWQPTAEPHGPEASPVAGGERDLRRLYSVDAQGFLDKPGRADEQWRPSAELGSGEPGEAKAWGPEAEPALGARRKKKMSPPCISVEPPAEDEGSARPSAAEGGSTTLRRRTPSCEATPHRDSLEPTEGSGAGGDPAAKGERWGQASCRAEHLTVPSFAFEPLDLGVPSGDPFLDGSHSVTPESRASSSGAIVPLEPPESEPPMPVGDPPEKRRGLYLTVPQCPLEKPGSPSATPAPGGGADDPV
Induced myeloid leukemia cell differentiation protein Mcl-1, sequence (Q07820 whole entry): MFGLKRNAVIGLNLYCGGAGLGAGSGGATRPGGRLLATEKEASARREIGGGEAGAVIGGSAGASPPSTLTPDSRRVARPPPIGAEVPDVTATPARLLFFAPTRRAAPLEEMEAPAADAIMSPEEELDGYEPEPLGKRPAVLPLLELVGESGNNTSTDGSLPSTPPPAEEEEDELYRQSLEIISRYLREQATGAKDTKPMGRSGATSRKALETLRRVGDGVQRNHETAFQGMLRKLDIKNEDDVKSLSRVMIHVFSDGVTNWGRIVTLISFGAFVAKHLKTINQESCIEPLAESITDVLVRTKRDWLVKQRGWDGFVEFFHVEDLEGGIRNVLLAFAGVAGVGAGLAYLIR

Take `Cc1ccc(-c2cc(C(=O)OCC(=O)N(C)C3CCS(=O)(=O)C3)c3ccccc3n2)o1` (stereo not drawn): the EC50 in experiment [1] is 6.97 µM (active). For the same compound, the IC50 in [2] is 5.12 µM (active).

With `C/C=C/c1ccc2c(c1)O[C@H](CN(C)C(=O)Nc1cccc(F)c1)[C@H](C)CN([C@@H](C)CO)S2(=O)=O`, the AC50 in experiment [3] was 31.9 µM (active).

As to `CCNC(=O)C[C@H]1CC[C@H]2[C@@H](COc3ccc(NC(=O)c4ccc5c(c4)OCO5)cc3C(=O)N2C)O1`, the IC50 was 45.1 µM (inactive) in [4] and 47.8 µM (inactive) in [5].

As for `COc1ccccc1CC(=O)Nc1ccc(NC(=O)c2cccs2)cc1`, the EC50 in [1] was 7.57 µM (active).

With `CC(C)c1ccc(CNC(=O)CSCC(=O)Nc2ccc3ccccc3c2)cc1`, the AC50 in experiment [6] was 4.3 µM (active).

For `Cc1nccc2c1[nH]c1ccccc12` [HARMAN], the AC50 in [7] is 58.4 µM (active).

For `N#C/C(=C/c1ccc(N2CCOCC2)o1)c1ccc(Cl)cc1`, the CC50 in experiment [8] is 100 µM (active).

`CC(=O)Nc1ccc(-c2nc3ccc(NC(C)=O)cc3o2)cc1`: in experiment [1], the EC50 was > 69.5 µM (inactive).

With `COc1ccc(CCn2c(=N)c(C(=O)NCCN3CCOCC3)cc3c(=O)n4cccc(C)c4nc32)cc1OC`, the concentration at half-maximal activity (AC50) in experiment [7] is 6.24 µM (active).

As for `O=C(CSc1ccsc1[N+](=O)[O-])NCc1ccco1`, in [9], the AC50 was 9.2 µM (active).

For `COc1ccc(CC(=O)OCC(=O)Nc2ccc(Br)cc2)cc1`, in experiment [10], the IC50 was 83.3 µM (inactive).

For `O=S(=O)(c1ccccc1)c1cnn(-c2ccccc2)c1-c1ccc(F)cc1`, the IC50 in experiment [4] is > 123 µM (inactive); in [5], > 123 µM (inactive); in experiment [11], > 47.1 µM (inactive). Further, the figures for the EC50 in [12] and in [13] were > 53 µM (inactive) and 5.16 µM (active), respectively.
